From patent US11401277B2, “Anti-bacterial heterocyclic compounds and their synthesis” (Bugworks Research, Inc., priority 2017, dated 2022)
≈ marks a conversion by molar mass, not a printed value. Where “and” joins values, the source holds several entries; their conditions need not be identical. Equal entries are not always repeated.

Columns and labels:
[1] = test system: K. pneumoniae [ATCC13883]; assay: Neutropenic Thigh Infection Model in Rat, K. pneumoniae; type: in vivo; details: 10 mg/kg, i.v. bolus
E. coli [ATCC25922] = assay: Neutropenic Thigh Infection Model in Rat, E. coli; type: in vivo; details: 10 mg/kg, i.v. bolus
hERG potassium channel = target: T1, hERG potassium channel (Homo sapiens, UniProt Q12809); assay: hERG inhibition assay, QPatch HTX automated electrophysiology; type: cell-based; details: CHO cell line expressing hERG; whole-cell patch clamp, room temperature
T1 construct: Chinese Hamster Ovary cell line stably expressing the full-length hERG potassium channel; expressed in transfected cells
Description: The compounds were tested for inhibition of the human ether a go-go related gene (hERG) K+ channel using QPatch HTX automated electrophysiology.
Compounds of Formula I were solubilised to 100 mM in DMSO before dilution in HBPS to 300 μM.
Electrophysiological recordings were made from a Chinese Hamster Ovary cell line stably expressing the full-length hERG potassium channel. Single cell ionic currents were measured in whole-cell patch clamp configuration at room temperature (21-23° C.) using the QPatch HTX platform (Sophion). Intracellular solution contained (mM): 120 KF, 20 KCl, 10 EGTA, 10 HEPES and was buffered to pH 7.3. […] Cells were clamped at a holding potential of −80 mV. Cells were stepped to +20 mV for 2 s then −40 mV for 3 s before returning to the holding potential. This sweep was repeated 10 times at 10 s intervals. hERG currents were measured from the tail step and referenced to the holding current. Compounds were then incubated for 2 minutes prior to a second measurement of ion channel current using an identical pulse train.

E. coli topoisomerase IV = E. coli topoisomerase IV (Escherichia coli, UniProt P0AFI2+P20083); assay: biochemical; details: gel based decatenation assay; read-out: E. coli Topo IV IC50
E. coli DNA gyrase = E. coli DNA gyrase (Escherichia coli, UniProt P0AES4+P0AES6); assay: biochemical; details: gel based supercoiling assay; read-out: E. coli DNA Gyrase IC50
[2] = test system: Enterobacter cloacae ATCC 13047; assay: MIC studies in LB Media; type: cell-based; details: ATCC13047, read-out: Minimum Inhibitory Concentration in LB Media, E. cl
Description: (§1) Bacterial cultures that were stored as glycerol stocks at −80° C. were sub cultured on LB agar plates to obtain isolated colonies. A single colony of each strain was cultured in LB broth. The cultures were incubated at 37° C., 200 rpm till they reach an optical density (OD at 600 nm) of 0.8 to 1. […] Test compounds were dissolved in dimethyl sulfoxide (DMSO) to a stock concentration of 4 mg/ml. A two-fold dilution series of this DMSO stock was prepared in a 96 well V bottom microtitre plate from rows A to H. A 3 μL volume of these dilutions were transferred to a 96-well flat bottom microtitre assay plate. Controls to monitor the effects of DMSO and media sterility were included. Each well was inoculated with 150 μL of the above diluted culture. The plates were incubated at 37° C. overnight in a humidified incubator. The following morning, the plates were read using a Spectrophotometer at 600 nm wavelength.

P. aurigenosa ATCC 27853 = assay: MIC studies in LB Media; type: cell-based; details: Pseudomonas aeruginosa, ATCC27853, read-out: Minimum Inhibitory Concentration in LB Media, P. ae
Description: as §1

E. coli ATCC 25922 = assay: MIC studies in LB Media; type: cell-based; details: Escherichia coli, ATCC25922, read-out: Minimum Inhibitory Concentration in LB Media, E. co
Description: as §1

[3] = test system: Citrobacter freundii ATCC 43864; assay: MIC studies in LB Media; type: cell-based; details: ATCC43864, read-out: Minimum Inhibitory Concentration in LB Media, C. fr
Description: as §1

A. baumannii ATCC 19606 = assay: MIC studies in LB Media; type: cell-based; details: Acinetobacter baumannii, ATCC19606, read-out: Minimum Inhibitory Concentration in LB Media, A. ba
Description: as §1

S. aureus ATCC 29213 = assay: MIC studies in LB Media; type: cell-based; details: Staphylococcus aureus, ATCC29213, MIC = 90% inhibition of growth, read-out: Minimum Inhibitory Concentration in LB Media, S. au
Description: as §1

E. faecalis ATCC 29212 = assay: MIC studies in LB Media; type: cell-based; details: Enterococcus faecalis, ATCC29212, read-out: Minimum Inhibitory Concentration in LB Media, E. fa
Description: as §1

[4] = test system: Morganella morganii ATCC 25830; assay: MIC studies in LB Media; type: cell-based; details: ATCC25830, read-out: Minimum Inhibitory Concentration in LB Media, M. mo
Description: as §1

K. pneumoniae ATCC 13883 = assay: MIC studies in LB Media; type: cell-based; details: Klebsiella pneumoniae, ATCC13883, read-out: Minimum Inhibitory Concentration in LB Media, K. pn
Description: as §1

[5] = test system: Proteus mirabilis ATCC 43071; assay: MIC studies in LB Media; type: cell-based; details: ATCC43071, read-out: Minimum Inhibitory Concentration in LB Media, P. mi
Description: as §1

[6] = individual animals, 10 hr post infection

Chain of E. coli topoisomerase IV (P20083 whole entry): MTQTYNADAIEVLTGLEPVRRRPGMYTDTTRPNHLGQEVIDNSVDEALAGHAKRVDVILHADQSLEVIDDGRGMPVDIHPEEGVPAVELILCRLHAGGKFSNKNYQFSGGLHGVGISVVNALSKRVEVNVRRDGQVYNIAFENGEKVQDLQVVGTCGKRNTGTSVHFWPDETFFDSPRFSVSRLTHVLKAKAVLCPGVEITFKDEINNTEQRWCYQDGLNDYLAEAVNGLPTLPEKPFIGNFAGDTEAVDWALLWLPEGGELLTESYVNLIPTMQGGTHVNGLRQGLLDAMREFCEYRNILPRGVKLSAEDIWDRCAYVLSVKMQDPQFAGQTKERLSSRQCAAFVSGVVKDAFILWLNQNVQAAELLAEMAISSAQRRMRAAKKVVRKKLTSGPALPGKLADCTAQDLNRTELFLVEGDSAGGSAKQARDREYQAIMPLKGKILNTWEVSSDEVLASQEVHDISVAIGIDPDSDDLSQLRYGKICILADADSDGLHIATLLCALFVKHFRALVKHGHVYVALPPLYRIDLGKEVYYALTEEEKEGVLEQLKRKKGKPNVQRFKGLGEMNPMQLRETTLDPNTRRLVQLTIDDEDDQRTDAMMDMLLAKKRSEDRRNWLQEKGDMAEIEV
Chain of E. coli topoisomerase IV (P0AFI2 whole entry): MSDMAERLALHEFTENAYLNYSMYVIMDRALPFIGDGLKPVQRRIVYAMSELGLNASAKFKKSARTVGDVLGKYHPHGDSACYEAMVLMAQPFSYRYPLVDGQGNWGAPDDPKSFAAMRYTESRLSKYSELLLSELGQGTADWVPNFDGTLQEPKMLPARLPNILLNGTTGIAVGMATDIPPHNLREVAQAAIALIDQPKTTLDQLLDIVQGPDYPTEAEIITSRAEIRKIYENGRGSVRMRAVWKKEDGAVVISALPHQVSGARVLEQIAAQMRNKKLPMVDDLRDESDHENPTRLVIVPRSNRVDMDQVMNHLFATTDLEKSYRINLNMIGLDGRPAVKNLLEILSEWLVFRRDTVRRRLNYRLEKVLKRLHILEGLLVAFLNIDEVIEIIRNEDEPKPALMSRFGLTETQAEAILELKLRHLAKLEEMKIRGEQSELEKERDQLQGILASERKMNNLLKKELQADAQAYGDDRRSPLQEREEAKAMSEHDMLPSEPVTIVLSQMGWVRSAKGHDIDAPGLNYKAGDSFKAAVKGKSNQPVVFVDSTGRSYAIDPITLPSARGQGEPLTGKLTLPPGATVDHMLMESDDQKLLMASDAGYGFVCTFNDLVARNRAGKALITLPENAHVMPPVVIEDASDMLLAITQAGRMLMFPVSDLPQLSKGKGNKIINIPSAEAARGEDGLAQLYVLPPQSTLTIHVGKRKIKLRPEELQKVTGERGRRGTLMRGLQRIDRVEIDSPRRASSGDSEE
Chain of E. coli DNA gyrase (P0AES4 whole entry, one chain of several): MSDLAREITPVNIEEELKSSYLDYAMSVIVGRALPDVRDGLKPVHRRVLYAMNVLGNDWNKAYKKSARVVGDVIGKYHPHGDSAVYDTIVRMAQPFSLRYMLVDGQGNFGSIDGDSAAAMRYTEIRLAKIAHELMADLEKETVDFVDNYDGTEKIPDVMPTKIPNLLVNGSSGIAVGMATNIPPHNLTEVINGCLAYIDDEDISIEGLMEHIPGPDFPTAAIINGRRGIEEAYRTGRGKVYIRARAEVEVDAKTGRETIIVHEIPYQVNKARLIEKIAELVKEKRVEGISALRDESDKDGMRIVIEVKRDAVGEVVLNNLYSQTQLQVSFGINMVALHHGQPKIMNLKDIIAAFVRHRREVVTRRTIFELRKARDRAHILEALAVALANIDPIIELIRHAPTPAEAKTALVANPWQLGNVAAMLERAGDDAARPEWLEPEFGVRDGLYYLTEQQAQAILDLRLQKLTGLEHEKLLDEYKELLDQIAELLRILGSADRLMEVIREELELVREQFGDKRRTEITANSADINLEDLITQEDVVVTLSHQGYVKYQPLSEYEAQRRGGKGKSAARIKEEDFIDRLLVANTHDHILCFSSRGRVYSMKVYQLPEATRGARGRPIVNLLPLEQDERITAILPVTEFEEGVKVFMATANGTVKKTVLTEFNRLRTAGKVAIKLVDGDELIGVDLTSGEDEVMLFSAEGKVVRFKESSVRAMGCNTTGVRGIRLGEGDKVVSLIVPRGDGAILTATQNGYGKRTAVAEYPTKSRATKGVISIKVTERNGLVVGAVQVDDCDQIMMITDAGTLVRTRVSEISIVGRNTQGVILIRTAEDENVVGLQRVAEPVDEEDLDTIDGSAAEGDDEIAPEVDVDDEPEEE
T1 sequence (Q12809 whole entry): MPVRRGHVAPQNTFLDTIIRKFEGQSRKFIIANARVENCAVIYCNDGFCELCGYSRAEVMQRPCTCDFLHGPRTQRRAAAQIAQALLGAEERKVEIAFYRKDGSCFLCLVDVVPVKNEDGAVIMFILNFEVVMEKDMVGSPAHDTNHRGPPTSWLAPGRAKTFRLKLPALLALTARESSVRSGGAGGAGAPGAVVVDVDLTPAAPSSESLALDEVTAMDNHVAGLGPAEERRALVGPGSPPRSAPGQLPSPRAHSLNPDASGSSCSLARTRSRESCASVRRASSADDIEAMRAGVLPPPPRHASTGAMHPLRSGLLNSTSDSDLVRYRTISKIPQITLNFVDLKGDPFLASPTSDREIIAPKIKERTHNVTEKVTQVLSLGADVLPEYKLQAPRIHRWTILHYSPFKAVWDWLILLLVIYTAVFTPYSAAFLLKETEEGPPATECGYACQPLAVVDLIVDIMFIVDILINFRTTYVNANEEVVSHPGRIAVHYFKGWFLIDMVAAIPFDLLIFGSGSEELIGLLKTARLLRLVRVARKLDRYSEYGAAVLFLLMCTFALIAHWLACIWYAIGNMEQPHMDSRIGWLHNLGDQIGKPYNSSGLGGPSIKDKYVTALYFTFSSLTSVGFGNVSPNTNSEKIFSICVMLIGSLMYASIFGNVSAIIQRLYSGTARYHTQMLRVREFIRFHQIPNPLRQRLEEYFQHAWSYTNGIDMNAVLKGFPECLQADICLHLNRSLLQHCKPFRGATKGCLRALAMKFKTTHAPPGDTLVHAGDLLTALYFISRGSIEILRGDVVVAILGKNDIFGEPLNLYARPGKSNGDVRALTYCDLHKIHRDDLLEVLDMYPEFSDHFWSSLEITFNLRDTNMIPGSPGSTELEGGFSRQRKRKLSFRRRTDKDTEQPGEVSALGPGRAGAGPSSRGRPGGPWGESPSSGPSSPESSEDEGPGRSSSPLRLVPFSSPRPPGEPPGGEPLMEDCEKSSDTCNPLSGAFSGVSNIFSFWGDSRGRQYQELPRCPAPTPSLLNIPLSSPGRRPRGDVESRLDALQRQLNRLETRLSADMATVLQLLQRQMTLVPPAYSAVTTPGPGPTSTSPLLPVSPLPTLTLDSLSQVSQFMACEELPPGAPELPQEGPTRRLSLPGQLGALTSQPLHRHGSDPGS

Row | SMILES | MEAN ± SD (Log10 CFU/g thigh) [1] [Log10 CFU/g thigh] | Mean Log 10 CFU/thigh reduction (wrt 2 h PI control: 5.04 Log10CFU/g thigh) [1] [Log 10 CFU/thigh] | Log10 CFU/g thigh [1, 6] | Mean Log 10 CFU/thigh reduction (wrt 2 h PI control: 5.04 Log10CFU/g thigh) (E. coli [ATCC25922]) [Log 10 CFU/thigh] | MEAN ± SD (Log10 CFU/g thigh) (E. coli [ATCC25922]; 10 hr post infection) | Log10 CFU/g thigh (E. coli [ATCC25922]; [6]) | IC50 (hERG potassium channel) [µM] | IC50 (E. coli topoisomerase IV) [nM] | IC50 (E. coli DNA gyrase) [nM] | MIC [2] [µg/mL] | MIC (P. aurigenosa ATCC 27853) [µg/mL] | MIC (E. coli ATCC 25922) [µg/mL] | MIC [3] [µg/mL] | MIC (A. baumannii ATCC 19606) [µg/mL] | MIC (S. aureus ATCC 29213) [µg/mL] | MIC (E. faecalis ATCC 29212) [µg/mL] | MIC [4] [µg/mL] | MIC (K. pneumoniae ATCC 13883) [µg/mL] | MIC [5] [µg/mL]
1 | O=C(O)c1cn(C2CC2)c2cc(N3CCNCC3)c(F)cc2c1=O [Ciprofloxacin, ciprofloxacin, reference compound] | 3.30 ± 0.11 | 1.74 | 3.22 Log10 CFU/g thigh and 3.25 Log10 CFU/g thigh and 3.42 Log10 CFU/g thigh | 2.12 | 3.73 ± 0.21 | 3.74 Log10 CFU/g thigh and 3.94 Log10 CFU/g thigh and 3.52 Log10 CFU/g thigh | – | – | – | – | – | – | – | – | – | – | – | – | –
2 | Cn1c(=O)ccc2nccc(OCCNC[C@H]3CN(c4ccc5c(n4)NC(=O)CO5)C(=O)O3)c21 [Compound 1, (S)-6-(5-(((2-((5-methyl-6-oxo-5,6-dihydro-1,5-naphthyridin-4-yl)oxy)ethyl)amino)methyl)-2-oxooxazolidin-3-yl)-2H-pyrido[3,2-b][1,4]oxazin-3(4H)-one] | – | – | – | – | – | – | > 100 | < 250 | < 250 | 8 (≈ 17.2 µM) | 4 (≈ 8.58 µM) | 0.5 (≈ 1.07 µM) | 1 (≈ 2.14 µM) | 2 (≈ 4.29 µM) | 0.25 (≈ 0.536 µM) | 1 (≈ 2.14 µM) | 2 (≈ 4.29 µM) | 1 (≈ 2.14 µM) | 16 (≈ 34.3 µM)
3 | Cn1c(=O)ccc2ccc(F)c(OCCNC[C@@H]3CN(c4cnc5c(n4)NC(=O)CO5)C(=O)O3)c21 [Compound 3, (R)-6-(5-(((2-((7-fluoro-1-methyl-2-oxo-1,2-dihydroquinolin-8-yl)oxy)ethyl)amino)methyl)-2-oxooxazolidin-3-yl)-2H-pyrazino[2,3-b][1,4]oxazin-3(4H)-one] | – | – | – | – | – | – | 25 | – | 11 | 0.125 (≈ 0.258 µM) | 0.5 (≈ 1.03 µM) | 0.06 (≈ 0.124 µM) | 0.06 (≈ 0.124 µM) | 0.06 (≈ 0.124 µM) | 0.015 (≈ 0.031 µM) | 0.06 (≈ 0.124 µM) | 0.03 (≈ 0.0619 µM) | 0.06 (≈ 0.124 µM) | 0.125 (≈ 0.258 µM)
4 | CC(COc1c(F)ccc2ccc(=O)n(C)c12)NC[C@H]1CN(c2cnc3c(n2)NC(=O)CO3)C(=O)O1 (stereo partly drawn) [Compound 4, 6-((5S)-5-(((1-((7-fluoro-1-methyl-2-oxo-1,2-dihydroquinolin-8-yl)oxy)propan-2-yl)amino)methyl)-2-oxooxazolidin-3-yl)-2H-pyrazino[2,3-b][1,4]oxazin-3(4H)-one] | – | – | – | – | – | – | 36 | < 350 | 30 | 0.5 (≈ 1 µM) | 2 (≈ 4.01 µM) | 0.25 (≈ 0.502 µM) | 0.5 (≈ 1 µM) | 0.25 (≈ 0.502 µM) | 0.06 (≈ 0.12 µM) | 0.125 (≈ 0.251 µM) | 1 (≈ 2.01 µM) | 0.25 (≈ 0.502 µM) | 2 (≈ 4.01 µM)
5 | Cc1cc(=O)n(C)c2c(OCCNC[C@H]3CN(c4cnc5c(n4)NC(=O)CO5)C(=O)O3)c(F)ccc12 [Compound 5, (S)-6-(5-(((2-((7-fluoro-1,4-dimethyl-2-oxo-1,2-dihydroquinolin-8-yl)oxy)ethyl)amino)methyl)-2-oxooxazolidin-3-yl)-2H-pyrazino[2,3-b][1,4]oxazin-3(4H)-one] | – | – | – | – | – | – | 71 | < 187 | 33 | – | 1 (≈ 2.01 µM) | 0.06 (≈ 0.12 µM) | – | 0.25 (≈ 0.502 µM) | 0.125 (≈ 0.251 µM) | 0.125 (≈ 0.251 µM) | – | 0.25 (≈ 0.502 µM) | –
6 | Cn1c(=O)ccc2ncc(Cl)c(OCCNC[C@H]3CN(c4cnc5c(n4)NC(=O)CO5)C(=O)O3)c21 [Compound 6, (S)-6-(5-(((2-((3-chloro-5-methyl-6-oxo-5,6-dihydro-1,5-naphthyridin-4-yl)oxy)ethyl)amino)methyl)-2-oxooxazolidin-3-yl)-2H-pyrazino[2,3-b][1,4]oxazin-3(4H)-one] | – | – | – | – | – | – | – | 17700 | 6330 | > 4 | > 4 | > 4 | > 4 | > 4 | > 4 | > 4 | > 4 | > 4 | > 4
7 | Cn1c(=O)cnc2ccc(F)c(OCCNC[C@H]3CN(c4cnc5c(n4)NC(=O)CO5)C(=O)O3)c21 [Compound 7, (S)-6-(5-(((2-((6-fluoro-4-methyl-3-oxo-3,4-dihydroquinoxalin-5-yl)oxy)ethyl)amino)methyl)-2-oxooxazolidin-3-yl)-2H-pyrazino[2,3-b][1,4]oxazin-3(4H)-one] | – | – | – | – | – | – | > 300 | < 220 | 15 | 0.125 (≈ 0.258 µM) | 0.25 (≈ 0.515 µM) | 0.03 (≈ 0.0618 µM) | 0.06 (≈ 0.124 µM) | 0.06 (≈ 0.124 µM) | ≤ 0.015 | 0.06 (≈ 0.124 µM) | 0.06 (≈ 0.124 µM) | 0.06 (≈ 0.124 µM) | 0.25 (≈ 0.515 µM)
8 | Cn1c(=O)cnc2ccc(F)c(OCCNC[C@@H]3CN(c4cnc5c(n4)NC(=O)CO5)C(=O)O3)c21 [Compound 8, (R)-6-(5-(((2-((6-fluoro-4-methyl-3-oxo-3,4-dihydroquinoxalin-5-yl)oxy)ethyl)amino)methyl)-2-oxooxazolidin-3-yl)-2H-pyrazino[2,3-b][1,4]oxazin-3(4H)-one] | – | – | – | – | – | – | 58 | – | – | 0.125 (≈ 0.258 µM) | 0.5 (≈ 1.03 µM) | 0.03 (≈ 0.0618 µM) | 0.06 (≈ 0.124 µM) | 0.06 (≈ 0.124 µM) | ≤ 0.015 | 0.06 (≈ 0.124 µM) | 0.03 (≈ 0.0618 µM) | 0.06 (≈ 0.124 µM) | 0.25 (≈ 0.515 µM)
9 | Cc1nc2ccc(F)c(OCCNC[C@H]3CN(c4cnc5c(n4)NC(=O)CO5)C(=O)O3)c2n(C)c1=O [Compound 9, (S)-6-(5-(((2-((6-fluoro-2,4-dimethyl-3-oxo-3,4-dihydroquinoxalin-5-yl)oxy)ethyl)amino)methyl)-2-oxooxazolidin-3-yl)-2H-pyrazino[2,3-b][1,4]oxazin-3(4H)-one] | – | – | – | – | – | – | – | – | 40 | 1 (≈ 2 µM) | 4 (≈ 8.01 µM) | 0.125 (≈ 0.25 µM) | 0.25 (≈ 0.501 µM) | 0.125 (≈ 0.25 µM) | ≤ 0.06 | 0.25 (≈ 0.501 µM) | 0.5 (≈ 1 µM) | 0.5 (≈ 1 µM) | 2 (≈ 4 µM)
10 | Cn1c(=O)cnc2ccc(F)c(OCCNC[C@H]3CN(c4cnc5c(n4)NC(=O)CS5)C(=O)O3)c21 [Compound 10, (S)-5-(((2-((6-fluoro-4-methyl-3-oxo-3,4-dihydroquinoxalin-5-yl)oxy)ethyl)amino)methyl)-3-(3-oxo-3,4-dihydro-2H-pyrazino[2,3-b][1,4]thiazin-6-yl)oxazolidin-2-one] | – | – | – | – | – | – | 19 | < 370 | 22 | 0.05 (≈ 0.0997 µM) | 0.25 (≈ 0.499 µM) | 0.025 (≈ 0.0499 µM) | 0.025 (≈ 0.0499 µM) | 0.013 (≈ 0.0259 µM) | ≤ 0.003 | 0.025 (≈ 0.0499 µM) | 0.025 (≈ 0.0499 µM) | 0.025 (≈ 0.0499 µM) | 0.125 (≈ 0.249 µM)
